Data set [1] has as its target T1, JNK2 (Homo sapiens, UniProt P45984).
T1 construct: purchased Reaction Biology Corp
Nature of the data set: Kinase HotSpot assay, JNK2. In kind it is biochemical.

In data set [2] the target is T2, JNK1 (Homo sapiens, UniProt P45983).
T2 construct: purchased Reaction Biology Corp
Description: Kinase HotSpot assay, JNK1. In kind it is biochemical.

Data set [3] concerns primary rat cortical neuron. Nature of the data set: Cell viability (MTT) from Aβ-induced neurotoxicity. In kind it is cell-based. Conditions: for Neuroprotection: Aβ-induced primary rat cortical neuronal death. The text has this: (§1) To establish whether the derived selective JNK3 inhibitor actually has the ability to protect neurons from amyloid β-induced neuronal cell death, which is known as the pathogenesis of Alzheimer’s disease, we performed cytotoxicity experiments using Aβ 42, which is known as the most toxic fragment of the amyloid protein. The amyloid-β is known to mainly cause apoptosis during cell death, so it was confirmed whether the derived selective JNK3 inhibitors affect the activation (cleavage) of caspase-3, which are apoptosis-related signaling substances. […] This means that selective JNK3 inhibitors can inhibit apoptosis signaling by amyloid-β in neurons, thereby inhibiting apoptosis. Additionally, we confirmed that JNK activation was induced by amyloid-β in neurons, and the derived selective JNK3 inhibitors could inhibit JNK activation induced by amyloid-β. […] Then, the experiments for JNK3 inhibitors’ effect on the viability of neurons were conducted for five 6-dihydroxy benzimidazoles (35a-35e) by comparing it with previously published resveratrol as a positive control. On the 5th day of rat primary cortical neuron differentiation, each compound was pre-treated for 90 min and then treated with 10 μM Aβ 42 (HIFP-treated) for 24 or 48 h, and cell viability was measured by MTT assay.
In initial experiments, rat hippocampal cells grown in serum-free neurobasal media containing B27 supplements at day 6 were treated with different concentrations of Aβ1–42 or Aβ1–40 for 24 h and then the cell viability was measured by colorimetric MTT assay. Aggregated Aβ1–42 and Aβ1–40 caused up to 40–60% cell death at concentrations ranging from […]. […] Resveratrol was active against various amyloid-related peptides including Aβ1–42, the most neurotoxic amyloid derivative present in the AD brain. […] Primary Rat Cortex Neurons, Sprague Dawley (Gibco, A36512, Fisher Scientific, Göteborg, Sweden), were cultured in Neurobasal™ Plus culture medium (Gibco, A3582901 Fisher Scientific, Göteborg, Sweden), supplemented with B-27™ Supplement (Gibco, A3582801 Fisher Scientific, Göteborg, Sweden) and 0.5 mM GlutaMAX™ Supplement (Gibco, 35050061 Fisher Scientific, Göteborg, Sweden) at 37 °C in a humidified 5% CO2 atmosphere. We plated –2 × 10^5 live cells per well in a poly-D-lysine/laminin coated 24-well plate. For neural differentiation, half of the medium was replaced with fresh complete medium every third day. On day 6, we removed half the volume of media from the culture plate, added an equal amount of complete culture media containing test compounds or vehicle to each well, and incubated them for 90 min at 37 °C and 5% CO2. Immediately prior to use, amyloid β-Protein (1–42) (HFIP-treated) (Bachem, 4090148.0100) was dissolved in 1% NH4OH, further diluted with culture medium, and added into the plates to a final concentration of 10 μM. Cells were incubated for 24 h with vehicle control or test compounds in the presence or absence of Aβ42. Cell viability was measured using the MTT [3-(4, 5-dimethylthiazol-2-yl)-2,5-diphenyltetrazolium bromide] assay. MTT solution was added into each well at a final concentration of 0.5 mg/mL, and cells were incubated at 37 °C for 4 h. The absorbance was detected at 540 nm (reference 650 nm) with a microplate reader. All results were normalized to OD values measured from the vehicle control (DMSO). […]
Primary Rat Cortex Neurons, Sprague Dawley (Gibco, A36512) were cultured in Neurobasal™ Plus culture medium (Gibco, A3582901), supplemented with B-27™ Supplement (Gibco, A3582801) and 0.5mM GlutaMAX™ Supplement (Gibco, 35050061) at 37 °C in a humidified 5% CO2 atmosphere. Plate ~2 × 10^5 live cells per well in a poly-D-lysine/laminin coated 24-well plate. For neural differentiation, half of the medium was replaced with fresh complete medium every third day. On day 6, remove half the volume of media from the culture plate and add an equal amount of complete culture media […]

Data set [4] relates to c-jun. Description: Amyloid-β-induced JNK activation (c-jun phosphorylation) in neurons. The class given is cell-based. Conditions: rat primary cortical neurons.
From the text: as §1, with “assay. […]” for “assay.”

In data set [5] the target is T3, c-MER (Homo sapiens, UniProt Q12866).
T3 construct: purchased Reaction Biology Corp. (Kinase HotSpot)
Description: Kinase panel screening 1 μM. Conditions: read-out: enzymatic inhibition c-MER. The class given is biochemical.

Data set [6] deals with T4, CAMKK1 (Homo sapiens, UniProt Q8N5S9).
T4 construct: purchased Reaction Biology Corp. (Kinase HotSpot)
Nature of the data set: Kinase panel screening 1 μM. Conditions: read-out: enzymatic inhibition CAMKK1. The class given is biochemical.

For data set [7], the target named is T5, EGFR (Homo sapiens, UniProt P00533).
T5 construct: purchased Reaction Biology Corp. (Kinase HotSpot)
Nature of the data set: Kinase panel screening 1 μM. Conditions: read-out: enzymatic inhibition EGFR. The class given is biochemical.

The target in data set [8] is T6, JAK3 (Homo sapiens, UniProt P52333).
T6 construct: purchased Reaction Biology Corp. (Kinase HotSpot)
Description: Kinase panel screening 1 μM. In kind it is biochemical. Conditions: read-out: enzymatic inhibition JAK3.

In data set [9] the target is T7, LYN (Homo sapiens, UniProt P07948).
T7 construct: purchased Reaction Biology Corp. (Kinase HotSpot)
Nature of the data set: Kinase panel screening 1 μM. The class given is biochemical. Conditions: read-out: enzymatic inhibition LYN.

The target in data set [10] is T8, PLK1 (Homo sapiens, UniProt P53350).
T8 construct: purchased Reaction Biology Corp. (Kinase HotSpot)
Description: Kinase panel screening 1 μM. The class given is biochemical. Conditions: read-out: enzymatic inhibition PLK1.

Data set [11] has as its target T9, RON/MST1R (Homo sapiens, UniProt Q04912).
T9 construct: purchased Reaction Biology Corp. (Kinase HotSpot)
Description: Kinase panel screening 1 μM. The class given is biochemical. Conditions: read-out: enzymatic inhibition RON/MST1R.

The values below come from publication PMC8539420, “Discovery of a Potent and Selective JNK3 Inhibitor with Neuroprotective Effect Against Amyloid β-Induced Neurotoxicity in Primary Rat Neurons” (International Journal of Molecular Sciences, 2021).

T2 sequence (P45983 whole entry): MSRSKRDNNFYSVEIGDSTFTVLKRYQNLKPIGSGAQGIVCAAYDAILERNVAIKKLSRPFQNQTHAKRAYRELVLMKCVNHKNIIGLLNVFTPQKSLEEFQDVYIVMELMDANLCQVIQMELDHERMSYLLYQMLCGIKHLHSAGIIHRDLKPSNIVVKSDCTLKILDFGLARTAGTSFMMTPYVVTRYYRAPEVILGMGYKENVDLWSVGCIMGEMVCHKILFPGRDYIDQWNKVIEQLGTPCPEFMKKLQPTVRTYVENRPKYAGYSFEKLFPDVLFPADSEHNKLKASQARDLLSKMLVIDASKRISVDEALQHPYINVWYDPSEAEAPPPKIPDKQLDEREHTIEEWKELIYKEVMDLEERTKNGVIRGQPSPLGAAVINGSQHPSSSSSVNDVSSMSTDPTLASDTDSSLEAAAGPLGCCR
T1 sequence (P45984 whole entry): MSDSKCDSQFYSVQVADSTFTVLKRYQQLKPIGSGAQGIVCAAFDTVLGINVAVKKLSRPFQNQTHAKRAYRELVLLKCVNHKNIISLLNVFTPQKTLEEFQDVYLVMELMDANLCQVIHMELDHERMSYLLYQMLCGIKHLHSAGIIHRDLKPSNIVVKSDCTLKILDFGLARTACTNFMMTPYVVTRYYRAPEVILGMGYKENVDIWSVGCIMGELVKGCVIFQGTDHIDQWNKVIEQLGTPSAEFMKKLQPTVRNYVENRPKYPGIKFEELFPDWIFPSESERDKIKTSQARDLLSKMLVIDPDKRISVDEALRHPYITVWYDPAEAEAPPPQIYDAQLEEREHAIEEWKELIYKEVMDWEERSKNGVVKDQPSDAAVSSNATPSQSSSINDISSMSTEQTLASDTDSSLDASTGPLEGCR
T5 sequence (P00533 25-1210): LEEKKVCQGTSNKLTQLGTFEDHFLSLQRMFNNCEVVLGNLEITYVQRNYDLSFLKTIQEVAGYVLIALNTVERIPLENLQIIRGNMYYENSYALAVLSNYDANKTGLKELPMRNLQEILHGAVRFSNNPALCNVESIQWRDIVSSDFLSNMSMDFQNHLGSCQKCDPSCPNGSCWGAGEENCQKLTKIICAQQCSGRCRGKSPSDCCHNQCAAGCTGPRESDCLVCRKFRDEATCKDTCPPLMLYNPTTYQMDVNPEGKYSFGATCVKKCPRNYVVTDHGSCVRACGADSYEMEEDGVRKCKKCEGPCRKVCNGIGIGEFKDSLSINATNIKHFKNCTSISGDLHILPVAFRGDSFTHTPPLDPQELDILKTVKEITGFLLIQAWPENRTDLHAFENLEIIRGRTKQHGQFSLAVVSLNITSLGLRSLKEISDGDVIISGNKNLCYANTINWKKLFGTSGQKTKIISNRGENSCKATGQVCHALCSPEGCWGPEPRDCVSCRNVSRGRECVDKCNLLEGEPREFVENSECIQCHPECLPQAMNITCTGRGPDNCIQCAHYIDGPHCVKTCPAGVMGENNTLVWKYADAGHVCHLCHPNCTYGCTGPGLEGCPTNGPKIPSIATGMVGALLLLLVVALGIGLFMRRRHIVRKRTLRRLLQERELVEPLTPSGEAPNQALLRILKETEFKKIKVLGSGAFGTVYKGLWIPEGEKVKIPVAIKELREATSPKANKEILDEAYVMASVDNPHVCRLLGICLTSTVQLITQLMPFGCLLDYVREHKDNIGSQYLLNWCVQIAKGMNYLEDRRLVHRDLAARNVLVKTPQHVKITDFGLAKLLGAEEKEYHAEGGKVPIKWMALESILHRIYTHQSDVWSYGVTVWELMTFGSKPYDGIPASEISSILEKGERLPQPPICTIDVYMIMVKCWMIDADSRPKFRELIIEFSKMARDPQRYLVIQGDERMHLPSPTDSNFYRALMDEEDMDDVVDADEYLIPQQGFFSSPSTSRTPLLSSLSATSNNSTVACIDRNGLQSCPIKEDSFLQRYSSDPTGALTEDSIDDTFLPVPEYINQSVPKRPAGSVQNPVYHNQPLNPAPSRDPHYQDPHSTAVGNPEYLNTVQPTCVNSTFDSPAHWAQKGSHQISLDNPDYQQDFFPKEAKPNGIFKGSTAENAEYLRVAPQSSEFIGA
T3 sequence (Q12866 21-999): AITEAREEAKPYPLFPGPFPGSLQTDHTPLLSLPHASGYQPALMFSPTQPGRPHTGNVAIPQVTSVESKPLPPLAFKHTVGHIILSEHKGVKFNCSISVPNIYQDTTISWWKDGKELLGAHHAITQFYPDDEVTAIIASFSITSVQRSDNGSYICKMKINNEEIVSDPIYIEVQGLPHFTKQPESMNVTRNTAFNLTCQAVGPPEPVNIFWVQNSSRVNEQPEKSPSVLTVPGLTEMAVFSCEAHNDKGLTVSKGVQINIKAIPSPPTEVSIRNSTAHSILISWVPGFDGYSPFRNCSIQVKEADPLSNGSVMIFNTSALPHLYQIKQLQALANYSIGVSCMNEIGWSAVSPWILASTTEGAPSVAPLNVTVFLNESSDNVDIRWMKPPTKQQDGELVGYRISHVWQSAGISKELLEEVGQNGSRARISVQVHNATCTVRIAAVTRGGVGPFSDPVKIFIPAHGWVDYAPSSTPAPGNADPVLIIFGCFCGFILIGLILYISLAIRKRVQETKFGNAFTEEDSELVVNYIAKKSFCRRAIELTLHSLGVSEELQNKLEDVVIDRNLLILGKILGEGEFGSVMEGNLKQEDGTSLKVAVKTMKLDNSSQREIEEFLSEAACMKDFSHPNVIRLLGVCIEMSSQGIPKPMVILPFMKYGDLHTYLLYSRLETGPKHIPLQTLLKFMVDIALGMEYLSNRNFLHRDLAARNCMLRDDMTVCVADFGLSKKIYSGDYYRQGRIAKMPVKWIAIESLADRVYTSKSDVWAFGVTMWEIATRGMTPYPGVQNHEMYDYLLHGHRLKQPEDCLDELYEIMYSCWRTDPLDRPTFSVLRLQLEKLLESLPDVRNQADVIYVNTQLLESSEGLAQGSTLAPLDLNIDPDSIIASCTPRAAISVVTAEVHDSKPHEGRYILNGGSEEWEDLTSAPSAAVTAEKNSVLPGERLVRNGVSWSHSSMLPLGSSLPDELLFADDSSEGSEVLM
T9 sequence (Q04912 25-1400): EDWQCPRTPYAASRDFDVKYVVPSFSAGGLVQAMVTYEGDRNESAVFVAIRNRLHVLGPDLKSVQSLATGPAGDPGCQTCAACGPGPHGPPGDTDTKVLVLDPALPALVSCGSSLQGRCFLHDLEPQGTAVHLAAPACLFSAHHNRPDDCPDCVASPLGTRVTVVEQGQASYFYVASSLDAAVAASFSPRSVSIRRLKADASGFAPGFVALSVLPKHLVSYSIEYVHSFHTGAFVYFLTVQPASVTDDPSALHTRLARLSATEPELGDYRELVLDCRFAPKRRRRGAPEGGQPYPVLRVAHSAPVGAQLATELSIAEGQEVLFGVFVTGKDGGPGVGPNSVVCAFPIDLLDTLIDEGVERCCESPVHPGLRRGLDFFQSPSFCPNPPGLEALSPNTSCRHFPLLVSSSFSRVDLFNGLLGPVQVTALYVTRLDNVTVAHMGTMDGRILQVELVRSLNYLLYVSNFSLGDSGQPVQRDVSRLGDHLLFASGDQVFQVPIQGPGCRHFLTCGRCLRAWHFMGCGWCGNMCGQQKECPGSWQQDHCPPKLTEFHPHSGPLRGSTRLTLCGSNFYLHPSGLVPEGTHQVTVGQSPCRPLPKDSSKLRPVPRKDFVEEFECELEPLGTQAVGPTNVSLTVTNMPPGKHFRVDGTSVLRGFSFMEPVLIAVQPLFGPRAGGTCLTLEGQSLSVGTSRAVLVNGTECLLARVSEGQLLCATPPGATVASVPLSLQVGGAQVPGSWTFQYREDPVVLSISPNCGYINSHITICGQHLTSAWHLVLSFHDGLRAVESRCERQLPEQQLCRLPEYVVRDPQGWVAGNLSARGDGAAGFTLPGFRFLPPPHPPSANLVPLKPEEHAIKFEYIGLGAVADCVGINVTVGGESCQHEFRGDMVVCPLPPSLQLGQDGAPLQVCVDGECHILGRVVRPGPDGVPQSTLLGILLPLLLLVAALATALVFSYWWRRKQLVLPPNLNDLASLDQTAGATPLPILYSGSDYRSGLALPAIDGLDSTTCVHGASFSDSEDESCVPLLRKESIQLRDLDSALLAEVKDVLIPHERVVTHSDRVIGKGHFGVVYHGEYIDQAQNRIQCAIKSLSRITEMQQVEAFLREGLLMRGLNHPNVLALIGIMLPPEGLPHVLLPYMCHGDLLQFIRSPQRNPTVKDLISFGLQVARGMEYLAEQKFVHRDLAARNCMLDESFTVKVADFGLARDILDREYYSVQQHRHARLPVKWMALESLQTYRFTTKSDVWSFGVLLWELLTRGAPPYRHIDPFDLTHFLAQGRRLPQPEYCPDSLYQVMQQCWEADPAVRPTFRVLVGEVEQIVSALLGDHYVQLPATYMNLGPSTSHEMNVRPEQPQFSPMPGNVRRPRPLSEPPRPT
T7 sequence (P07948 whole entry): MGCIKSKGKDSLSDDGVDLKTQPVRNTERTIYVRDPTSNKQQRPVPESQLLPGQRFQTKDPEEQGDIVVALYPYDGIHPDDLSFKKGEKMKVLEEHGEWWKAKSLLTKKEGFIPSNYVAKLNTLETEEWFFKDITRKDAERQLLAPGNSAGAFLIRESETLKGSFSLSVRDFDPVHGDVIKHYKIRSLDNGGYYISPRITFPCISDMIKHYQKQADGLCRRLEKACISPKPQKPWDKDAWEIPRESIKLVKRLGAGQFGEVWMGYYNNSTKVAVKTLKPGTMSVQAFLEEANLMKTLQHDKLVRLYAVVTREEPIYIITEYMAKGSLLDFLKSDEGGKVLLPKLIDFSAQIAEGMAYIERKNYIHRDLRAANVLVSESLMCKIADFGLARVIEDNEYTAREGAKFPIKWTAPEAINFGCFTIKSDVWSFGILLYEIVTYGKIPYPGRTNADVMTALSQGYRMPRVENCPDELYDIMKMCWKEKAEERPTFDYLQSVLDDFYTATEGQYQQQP

In general, IC50 refers to the concentration needed to halve the response being measured. A high value points to a need for much substance. As to `O=C(C1CC1)N1CCC[C@H](Nc2nccc(-n3c(-c4ccc5c(c4)OCCO5)nc4cc(O)c(O)cc43)n2)C1` [35b, (S)-Cyclopropyl(3-((4-(2-(2,3-dihydrobenzo[b][1,4]dioxin-6-yl)-5,6-dihydroxy-1H-benzo[d]imidazol-1-yl)pyrimidin-2-yl)amino)piperidin-1-yl)methanone], the results for the IC50 in data set [1] and in [2] were 898 nM and > 10000 nM, respectively. Also, the inhibition at 1 µM in data set [1] (1 μM, read-out: enzymatic inhibition JNK2) stood at 38%; in data set [2] (1 μM, read-out: enzymatic inhibition JNK1) it was 9%; in data set [5], 2.29%; in [6] it was 0%; in data set [7], 0%; in data set [8], 10.7%. Besides, the inhibition at 1 µM is 10.8% in [9], 0% in [10] and 0% in [11]. The “selectivity over JNK1” value in data set [2] (JNK3 versus JNK1) is > 1000 fold. Further, the Neuroprotection in [3] was 95.7%; in [3] (listed as Present report), > 95.7 ± 2.9%. Moreover, the “Cell viability, Mean” value in data set [3] (pre-treated 90 min, then 10 μM Aβ42, MTT, normalized to vehicle control (DMSO), compound concentration not given) is 95.7 ± 2.9%. Further, the “phosphorylation of c-jun induced by amyloid-β” value in data set [4] is “inhibit phosphorylation of c-jun”.
